# Reference: patent publication US10738040B2, “Compounds, compositions, and methods for increasing CFTR activity” (Proteostasis Therapeutics, Inc., priority 2014, dated 2020)
# Marks after values point to notes of the source that are not given here.
# Columns and labels:
# [1] = molecular target: T1, ΔF508-CFTR (Homo sapiens, UniProt P13569, DEL508-508); experiment: Ussing measurements (short-circuit current, CFTRinh-172-inhibitable); type: cell-based; conditions: compound at 10 uM and VX-809 at 3 uM, relative to VX-809 (3 uM); hBEs homozygous for ΔF508, 24 hours treatment; CFTRinh-172-inhibitable current
# T1 construct: Primary lung epithelial cells homozygous for the Cystic Fibrosis-causing ΔF508 mutation were differentiated; endogenous in cells; host or cells: primary human lung (bronchial) epithelial cells homozygous for ΔF508, differentiated at air-liquid interface
# Protocol: As discussed above, Ussing measurements can be used to measure CFTR activity. In this method, primary lung epithelial cells (hBEs) homozygous for the Cystic Fibrosis-causing ΔF508 mutation were differentiated for a minimum of 4 weeks in an air-liquid interface on SnapWell filter plates prior to the Ussing measurements. Cells were apically mucus-washed for 30 minutes prior to treatment with compounds. The basolateral media was removed and replaced with media containing the compound of interest diluted to its final concentration from DMSO stocks. Treated cells were incubated at 37° C. and 5% CO2 for 24 hours. At the end of the treatment period, the cells on filters were transferred to the Ussing chamber and equilibrated for 30 minutes. The short-circuit current was measured in voltage clamp-mode (Vhold=0 mV), and the entire assay was conducted at a temperature of 36° C.-36.5° C. Once the voltages stabilized, the chambers were clamped, and data was recorded by pulse readings every 5 seconds. Following baseline current stabilization, the following additions were applied and the changes in current and resistance of the cells was monitored: • 1. Benzamil to the apical chamber to inhibit ENaC sodium channel. • 2. Forskolin to both chambers to activate ΔF508-CFTR by phosphorylation. • 3. Genistein to both chambers to potentiate ΔF508-CFTR channel opening. • 4. CFTRinh-172 to the apical chamber to inhibit ΔF508-CFTR Cl— conductance. The inhibitable current (that current that is blocked by CFTRinh-172) is measured as the specific activity of the ΔF508-CFTR channel, and increases in response to compound in this activity over that observed in vehicle-treated samples are identified as the correction of ΔF508-CFTR function imparted by the compound tested.
# [2] = molecular target: T1, ΔF508-CFTR; experiment: hBE equivalent current (Ieq) assay; type: cell-based; conditions: compound at 10 uM and VX-809 at 1 uM, relative to VX-809 (1 uM); primary lung epithelial cells homozygous for ΔF508, 24 hours treatment; AUC of equivalent chloride current
# Protocol: ii. hBE Equivalent Current (Ieq) Assay
# Primary lung epithelial cells homozygous for the Cystic Fibrosis-causing ΔF508 mutation were differentiated for a minimum of 4 weeks in an air-liquid interface on Costar 24 well HTS filter plates prior to the equivalent current (Ieq) measurements. Cells were apically mucus-washed for 30 minutes 24 h prior to treatment with compounds. The basolateral media was removed and replaced with media containing the compound of interest diluted to its final concentration from DMSO stocks. Treated cells were incubated at 37° C. and 5% CO2 for 24 hours. At the end of the treatment period, the media was changed to the Ieq experimental solution for 30 minutes before the experiment and plates are maintained in a CO2-free incubator during this period. The plates containing the cells were then placed in pre-warmed heating blocks at 36° ° C.±0.5 for 15 minutes before measurements are taken. The transepithelial voltage (VT) and conductance (GT) were measured using a custom 24 channel current clamp (TECC-24) with 24 well electrode manifold. The Ieq assay measurements were made following additions with standardized time periods: • 1. The baseline VT and GT values were measured for approximately 20 minutes. • 2. Benzamil was added to block ENaC for 15 minutes. • 3. Forskolin plus VX-770 (ivacaftor) were added to maximally activate ΔF508-CFTR for 27 minutes. • 4. Bumetanide was added to inhibit the NaK2Cl cotransporter and shut-off secretion of chloride.
# The activity data captured was the area under the curve (AUC) for the traces of the equivalent chloride current. The AUC was collected from the time of the forskolin/VX-770 addition until the inhibition by bumetanide addition. Correction in response to compound treatment was scored as the increase in the AUC for compound-treated samples over that of vehicle-treated samples.
# T1 sequence (P13569 with tags, fused parts or gaps DEL508-508): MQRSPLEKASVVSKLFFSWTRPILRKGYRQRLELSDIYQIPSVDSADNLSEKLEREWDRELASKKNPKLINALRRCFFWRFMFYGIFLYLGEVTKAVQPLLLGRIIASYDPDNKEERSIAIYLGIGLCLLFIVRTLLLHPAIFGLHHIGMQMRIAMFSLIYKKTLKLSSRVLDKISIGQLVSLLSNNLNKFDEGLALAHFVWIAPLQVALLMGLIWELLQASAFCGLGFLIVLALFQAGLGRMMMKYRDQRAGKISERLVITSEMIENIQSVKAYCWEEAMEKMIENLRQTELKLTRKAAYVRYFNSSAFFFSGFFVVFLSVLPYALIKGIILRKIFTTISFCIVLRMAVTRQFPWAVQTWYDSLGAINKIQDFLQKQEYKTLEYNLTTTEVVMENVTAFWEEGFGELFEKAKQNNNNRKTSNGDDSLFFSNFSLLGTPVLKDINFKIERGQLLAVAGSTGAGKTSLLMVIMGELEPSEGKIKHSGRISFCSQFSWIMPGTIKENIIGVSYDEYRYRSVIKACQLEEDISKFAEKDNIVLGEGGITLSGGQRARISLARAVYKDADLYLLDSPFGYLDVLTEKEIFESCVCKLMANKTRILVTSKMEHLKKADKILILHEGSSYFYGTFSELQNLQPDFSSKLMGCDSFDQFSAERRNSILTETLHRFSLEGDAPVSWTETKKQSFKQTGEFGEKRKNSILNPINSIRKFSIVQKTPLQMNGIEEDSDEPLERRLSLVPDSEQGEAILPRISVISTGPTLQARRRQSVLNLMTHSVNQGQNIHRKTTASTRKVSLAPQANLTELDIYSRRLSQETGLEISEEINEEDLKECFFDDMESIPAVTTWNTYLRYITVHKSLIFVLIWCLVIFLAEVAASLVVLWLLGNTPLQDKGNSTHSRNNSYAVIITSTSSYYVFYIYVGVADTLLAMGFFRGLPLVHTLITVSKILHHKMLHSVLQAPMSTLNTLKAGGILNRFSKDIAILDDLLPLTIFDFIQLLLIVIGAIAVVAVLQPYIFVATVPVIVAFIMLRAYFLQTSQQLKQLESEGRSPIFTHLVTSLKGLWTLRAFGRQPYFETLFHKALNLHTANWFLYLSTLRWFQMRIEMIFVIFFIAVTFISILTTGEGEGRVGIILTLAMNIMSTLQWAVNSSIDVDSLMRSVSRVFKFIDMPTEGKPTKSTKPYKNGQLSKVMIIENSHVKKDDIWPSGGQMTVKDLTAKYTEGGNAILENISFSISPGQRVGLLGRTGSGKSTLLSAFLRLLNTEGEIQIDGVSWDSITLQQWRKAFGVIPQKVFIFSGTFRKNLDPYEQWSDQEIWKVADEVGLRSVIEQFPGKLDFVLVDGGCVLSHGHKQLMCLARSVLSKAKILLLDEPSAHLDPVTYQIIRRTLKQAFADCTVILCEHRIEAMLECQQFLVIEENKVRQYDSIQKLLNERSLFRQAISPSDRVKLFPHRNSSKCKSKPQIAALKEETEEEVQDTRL
SMILES,Ussing (% VX-809) [1],Ieq (% VX-809) [2]
C[C@@H](O)c1cnnn1[C@H]1C[C@H](NC(=O)c2cc(-c3ccccc3)on2)C1,## (activity ≥200% of VX-809 (3 uM) with compound at 10 uM and VX-809 at 3 uM),** (activity ≥200% of VX-809 (1 uM) with compound at 10 uM and VX-809 at 1 uM)
O=C(N[C@H]1C[C@H](n2cc(CO)nn2)C1)c1cc(-c2ccccc2)on1,## (activity ≥200% of VX-809 (3 uM) with compound at 10 uM and VX-809 at 3 uM),++ *
O=C(N[C@H]1C[C@@H](n2nncc2CO)C1)c1cc(-c2ccccc2)on1,## (activity ≥200% of VX-809 (3 uM) with compound at 10 uM and VX-809 at 3 uM),** (activity ≥200% of VX-809 (1 uM) with compound at 10 uM and VX-809 at 1 uM)
C[C@@H](O)c1cnnn1[C@H]1C[C@@H](NC(=O)c2cc(-c3ccccc3)on2)C1,## (activity ≥200% of VX-809 (3 uM) with compound at 10 uM and VX-809 at 3 uM),
O=C(N[C@H]1C[C@@H](n2cc(CO)nn2)C1)c1cc(-c2ccccc2)on1,## (activity ≥200% of VX-809 (3 uM) with compound at 10 uM and VX-809 at 3 uM),** (activity ≥200% of VX-809 (1 uM) with compound at 10 uM and VX-809 at 1 uM)
C[C@@H](O)c1cn([C@H]2C[C@@H](NC(=O)c3cc(-c4ccccc4)on3)C2)nn1,## (activity ≥200% of VX-809 (3 uM) with compound at 10 uM and VX-809 at 3 uM),
O=C(N[C@H]1C[C@H](Cc2nnc(CO)s2)C1)c1cc(-c2ccccc2)on1,## (activity ≥200% of VX-809 (3 uM) with compound at 10 uM and VX-809 at 3 uM),
C[C@H](O)c1nnc(C[C@H]2C[C@H](NC(=O)c3cc(-c4ccccc4)on3)C2)s1,## (activity ≥200% of VX-809 (3 uM) with compound at 10 uM and VX-809 at 3 uM),** (activity ≥200% of VX-809 (1 uM) with compound at 10 uM and VX-809 at 1 uM)
C[C@@H](O)c1nnc(C[C@H]2C[C@H](NC(=O)c3cc(-c4ccccc4)on3)C2)s1,## (activity ≥200% of VX-809 (3 uM) with compound at 10 uM and VX-809 at 3 uM),** (activity ≥200% of VX-809 (1 uM) with compound at 10 uM and VX-809 at 1 uM)
O=C(N[C@H]1C[C@@H](c2nnc(CO)s2)C1)c1cc(-c2ccccc2)on1,## (activity ≥200% of VX-809 (3 uM) with compound at 10 uM and VX-809 at 3 uM),
C[C@@H](O)c1nnc([C@H]2C[C@@H](NC(=O)c3cc(-c4ccccc4)on3)C2)s1,## (activity ≥200% of VX-809 (3 uM) with compound at 10 uM and VX-809 at 3 uM),** (activity ≥200% of VX-809 (1 uM) with compound at 10 uM and VX-809 at 1 uM)
C[C@H](O)c1nnc([C@H]2C[C@@H](NC(=O)c3cc(-c4ccccc4)on3)C2)s1,## (activity ≥200% of VX-809 (3 uM) with compound at 10 uM and VX-809 at 3 uM),** (activity ≥200% of VX-809 (1 uM) with compound at 10 uM and VX-809 at 1 uM)
O=C(N[C@H]1C[C@H](c2nnc(CO)s2)C1)c1cc(-c2ccccc2)on1,## (activity ≥200% of VX-809 (3 uM) with compound at 10 uM and VX-809 at 3 uM),** (activity ≥200% of VX-809 (1 uM) with compound at 10 uM and VX-809 at 1 uM)
C[C@H](O)c1nnc([C@H]2C[C@H](NC(=O)c3cc(-c4ccccc4)on3)C2)s1,## (activity ≥200% of VX-809 (3 uM) with compound at 10 uM and VX-809 at 3 uM),** (activity ≥200% of VX-809 (1 uM) with compound at 10 uM and VX-809 at 1 uM)
C[C@@H](O)c1nnc([C@H]2C[C@H](NC(=O)c3cc(-c4ccccc4)on3)C2)s1,## (activity ≥200% of VX-809 (3 uM) with compound at 10 uM and VX-809 at 3 uM),** (activity ≥200% of VX-809 (1 uM) with compound at 10 uM and VX-809 at 1 uM)
O=C(NC1CC(c2nnc(CO)o2)C1)c1cc(-c2ccccc2)on1 (stereo not drawn),## (activity ≥200% of VX-809 (3 uM) with compound at 10 uM and VX-809 at 3 uM),
CCCCNC(=O)OCc1cn([C@H]2C[C@H](NC(=O)c3cc(-c4ccccc4)on3)C2)nn1,## (activity ≥200% of VX-809 (3 uM) with compound at 10 uM and VX-809 at 3 uM),

SMILES,Ussing (% VX-809) [1],Ieq (% VX-809) [2]
O=C(NC1CC(c2nc(CO)no2)C1)c1cc(-c2ccccc2)on1 (stereo not drawn),## (activity ≥200% of VX-809 (3 uM) with compound at 10 uM and VX-809 at 3 uM),** (activity ≥200% of VX-809 (1 uM) with compound at 10 uM and VX-809 at 1 uM)
O=C(N[C@H]1C[C@@H](c2noc(CO)n2)C1)c1cc(-c2ccccc2)on1,## (activity ≥200% of VX-809 (3 uM) with compound at 10 uM and VX-809 at 3 uM),** (activity ≥200% of VX-809 (1 uM) with compound at 10 uM and VX-809 at 1 uM)
O=C(N[C@H]1C[C@H](c2noc(CO)n2)C1)c1cc(-c2ccccc2)on1,## (activity ≥200% of VX-809 (3 uM) with compound at 10 uM and VX-809 at 3 uM),** (activity ≥200% of VX-809 (1 uM) with compound at 10 uM and VX-809 at 1 uM)
C[C@@H](O)c1nnc(C[C@H]2C[C@H](NC(=O)c3cc(-c4ccccc4)on3)C2)o1,## (activity ≥200% of VX-809 (3 uM) with compound at 10 uM and VX-809 at 3 uM),** (activity ≥200% of VX-809 (1 uM) with compound at 10 uM and VX-809 at 1 uM)
C[C@@H](O)c1nnc(C2CC(NC(=O)c3cc(-c4ccc(F)cc4)on3)C2)o1 (stereo partly drawn),## (activity ≥200% of VX-809 (3 uM) with compound at 10 uM and VX-809 at 3 uM),
CO[C@H](C)c1nnc([C@H]2C[C@@H](NC(=O)c3cc(-c4ccccc4)on3)C2)o1,## (activity ≥200% of VX-809 (3 uM) with compound at 10 uM and VX-809 at 3 uM),* (activity 100-200% of VX-809 (1 uM) with compound at 10 uM and VX-809 at 1 uM)
C[C@H](c1nnc([C@H]2C[C@H](NC(=O)c3cc(-c4ccccc4)on3)C2)o1)S(C)(=O)=O,## (activity ≥200% of VX-809 (3 uM) with compound at 10 uM and VX-809 at 3 uM),* (activity 100-200% of VX-809 (1 uM) with compound at 10 uM and VX-809 at 1 uM)
CC(C)O[C@H](C)c1nnc([C@H]2C[C@H](NC(=O)c3cc(-c4ccccc4)on3)C2)o1,## (activity ≥200% of VX-809 (3 uM) with compound at 10 uM and VX-809 at 3 uM),
CN1CC(c2nnc([C@H]3C[C@H](NC(=O)c4cc(-c5ccccc5)on4)C3)o2)C1,## (activity ≥200% of VX-809 (3 uM) with compound at 10 uM and VX-809 at 3 uM),
O=C(N[C@H]1C[C@H](c2nnc(C3COC3)o2)C1)c1cc(-c2ccccc2)on1,## (activity ≥200% of VX-809 (3 uM) with compound at 10 uM and VX-809 at 3 uM),
O=C(N[C@H]1C[C@H](c2nnc(C3CS(=O)(=O)C3)o2)C1)c1cc(-c2ccccc2)on1,## (activity ≥200% of VX-809 (3 uM) with compound at 10 uM and VX-809 at 3 uM),
O=C(N[C@H]1C[C@H](n2ccnc2)C1)c1cc(-c2ccccc2)on1,# (activity 100-200% of VX-809 (3 uM) with compound at 10 uM and VX-809 at 3 uM),
O=C(NC1CCC(n2nncc2CO)C1)c1cc(-c2ccccc2)on1 (stereo not drawn),## (activity ≥200% of VX-809 (3 uM) with compound at 10 uM and VX-809 at 3 uM),
O=C(NC1CCC(n2cc(CO)nn2)C1)c1cc(-c2ccccc2)on1 (stereo not drawn),# (activity 100-200% of VX-809 (3 uM) with compound at 10 uM and VX-809 at 3 uM),
O=C(NC1CCC(c2nnc(CO)o2)C1)c1cc(-c2ccccc2)on1 (stereo not drawn),# (activity 100-200% of VX-809 (3 uM) with compound at 10 uM and VX-809 at 3 uM),
O=C(NC1CCC(n2nncc2CO)CC1)c1cc(-c2ccccc2)on1 (stereo not drawn),# (activity 100-200% of VX-809 (3 uM) with compound at 10 uM and VX-809 at 3 uM),
O=C(NC1CCC(n2cc(CO)nn2)CC1)c1cc(-c2ccccc2)on1 (stereo not drawn),# (activity 100-200% of VX-809 (3 uM) with compound at 10 uM and VX-809 at 3 uM),
